The record followed here is paper PMC12651750 (Cells, 2025).

For one assay, the system named is Jurkat cells. The assay is described as follows: Cell cycle analysis (propidium iodide, flow cytometry). It counts as cell-based, human. The following applies: 48 h. As to the method: Jurkat cells were cultured to the appropriate density. Jurkat cells were stimulated with three concentration gradients of 0.2 µM, 1 µM, and 5 µM of NBU-2, and DMSO (as a control) for 48 h. Cells were collected, fixed overnight using pre-cooled 70% ethanol, and then stained according to the instructions. Subsequently, flow cytometry was used to detect using flow cytometry.
A general note: Flow cytometry measures light scatter and fluorescence of single cells or particles in a stream.

The subject of assay [1] is HL-60, human leukemic cell line. Description: Anti-proliferation MTT / CCK-8 assay. It counts as cell-based. From the text: (§1) K562, human erythroleukemia line; HL-60, human leukemic cell line; Jurkat, human leukemic T cell line; CCRF-CEM, human leukemic lymphoblasts; U937, human histiocytic lymphoma; HCT-116, human colorectal cancer cell line; A549, human lung cancer cell line; Hep G2, human hepatoma cell lines; MDA-MB-231, MCF-7, human breast cancer cell line; 4T1, mouse breast cancer cell line; PC12, pheochromocytoma of the rat adrenal medulla; HUVEC, human umbilical vein endothelial cells. These cells were purchased from the National Collection of Authenticated Cell Cultures (Shanghai, China).
(§2) The concentration of the cell suspension was adjusted to the appropriate concentration with fresh medium (the number of cells was about 30–40% of the bottom area of the well plate). 150 μL (about 1 × 10^4 cells) of prepared cell suspension containing different concentrations of NBU-2 were added to a 96-microtiter plate, and 3 replicate wells were set up for each concentration. If the cells were adherent, the cells were first allowed to grow overnight in 96 microtiter plates until the cells were adherent, and then the old medium was replaced with the drug-containing medium. The plates were incubated in a 5% CO2 cell incubator at 37 °C for 72 h. Then, 15 μL of MTT solution was added to each well, 100 μL of 10% SDS solution (pH = 2) was added after 4 h, and the plate was incubated at 37 °C with 5% CO2 overnight to fully dissolve the crystals. Finally, the absorbance value of each well was measured at 570 and 655 nm.
(§3) The cells (about 1 × 10^4 cells) were treated with different concentrations of NBU-2 and DMSO control for different times (24 h, 48 h, 72 h), with 3 replicate wells for each concentration. Incubate at 37 °C in a 5% CO2 cell culture incubator. After a predetermined time, 10 μL of CCK-8 was added to each well and incubated for 2 h. The absorbance was measured at the excitation wavelength of 450 nm.
Background: Formazan colour is commonly taken as a measure of viable cells.

The subject of assay [2] is K562, human erythroleukemia line. Description: Anti-proliferation MTT / CCK-8 assay. It counts as cell-based. The conditions noted are these: K562, read-out: IC50 proliferation K562, heading: IC50 proliferation K562, 72 h, mean ± SEM of three independent assays.
From the text: as §1, §2, §3

For assay [3], the system named is MDA-MB-231, human breast cancer cell line. The assay is described as follows: Anti-proliferation MTT / CCK-8 assay. It counts as cell-based. The following applies: MDA-MB-231, read-out: IC50 proliferation MDA-MB-231, heading: IC50 proliferation MDA-MB-231, 72 h, mean ± SEM of three independent assays.
From the text: as §1, §2, §3

The subject of assay [4] is A549, human lung cancer cell line. Description: Anti-proliferation MTT / CCK-8 assay. The class given is cell-based. The following applies: A549, read-out: IC50 proliferation A549, heading: IC50 proliferation A549, 72 h, mean ± SEM of three independent assays.
From the text: as §1, §2, §3

Assay [5] deals with U937, human histiocytic lymphoma. The assay is described as follows: Anti-proliferation MTT / CCK-8 assay. It counts as cell-based.
From the text: as §1, §2, §3

The test system of assay [6] is 4T1, mouse breast cancer cell line. Description: Anti-proliferation MTT / CCK-8 assay. The following applies: 72 h. It counts as cell-based.
From the text: as §1, §2, §3

Assay [7] deals with PC12, pheochromocytoma of the rat adrenal medulla. The assay is described as follows: Anti-proliferation MTT / CCK-8 assay. The class given is cell-based. The conditions noted are these: PC-12, 72 h.
From the text: as §1, §2, §3

The test system of assay [8] is CCRF-CEM, human leukemic lymphoblasts. Description: Anti-proliferation MTT / CCK-8 assay. It counts as cell-based.
From the text: as §1, §2, §3

For assay [9], the system named is MCF-7, human breast cancer cell line. The assay is described as follows: Anti-proliferation MTT / CCK-8 assay. The class given is cell-based. The following applies: MCF7, read-out: IC50 proliferation MCF-7, heading: IC50 proliferation MCF-7, 72 h, mean ± SEM of three independent assays.
From the text: as §1, §2, §3

For assay [10], the system named is Hep G2, human hepatoma cell lines. The assay is described as follows: Anti-proliferation MTT / CCK-8 assay. The class given is cell-based. The conditions noted are these: HepG2, read-out: IC50 proliferation HepG2, heading: IC50 proliferation HepG2, 72 h, mean ± SEM of three independent assays.
From the text: as §1, §2, §3

Assay [11] concerns HCT-116, human colorectal cancer cell line. Description: Anti-proliferation MTT / CCK-8 assay. The class given is cell-based. The following applies: HCT-116, read-out: IC50 proliferation HCT-116, heading: IC50 proliferation HCT-116, 72 h, mean ± SEM of three independent assays.
From the text: as §1, §2, §3

The structures appear in SMILES notation. Where two headings read alike, the source gives them in different places. Bounds are passed on as bounds.

As for `Cc1cccc2c(=O)c3c(NCCCCCC(=O)NO)ccc([N+](=O)[O-])c3[nH]c12` [NBU-2, N-hydroxy-6-((5-methyl-4-nitro-9-oxo-9,10-dihydroacridin-1-yl)amino)hexanamide], the “Percentage of cells in G0/G1 phase (2N)” value with Jurkat cells (0.2 μM) came out at 35.3%; with Jurkat cells (1 μM) it was 40.4%; with Jurkat cells (5 μM), 57.9%. The IC50 in [1] (HL-60, 72 h, read-out: IC50 against HL-60) is under 5 µM; in [1] (HL-60, read-out: IC50 proliferation HL-60, heading: IC50 proliferation HL-60, 72 h, mean ± SEM of three independent assays) it was 1.92 ± 0.08 µM; in assay [2], 7.02 ± 1.85 µM; in assay [3] it was 8.76 ± 1.88 µM; in assay [4], 33.7 ± 2.15 µM; in assay [5] (U-937, 72 h, read-out: IC50 against U937) it was under 5 µM. Moreover, the IC50 in assay [5] (U-937, read-out: IC50 proliferation U937, heading: IC50 proliferation U937, 72 h, mean ± SEM of three independent assays) is 2.34 ± 1.08 µM; in assay [6], over 0.05 µM; in assay [7], over 0.05 µM; in [8] (72 h, read-out: IC50 against CCRF-CEM), under 5 µM; in assay [8] (read-out: IC50 proliferation CCRF-CEM, 72 h, mean ± SEM of three independent assays) it was 2.68 ± 0.3 µM; in assay [9], 14.9 ± 3.21 µM. Also, the IC50 in assay [10] was 7.55 ± 0.46 µM; in assay [11], 7.06 ± 1.48 µM.
